# Activity calls are given as the source filed them. The calls are words filed in the database; no cut-off is given here.
# Legend:
# [1] = biological target: Protein-arginine deiminase type-4 (Homo sapiens, UniProt Q9UM07); assay: Inhibition of PAD4 (unknown origin) using Nalpha-benzoyl-L-arginine ethyl ester as substrate preincubated for 60 mins followed by substrate addition and measured after 90 mins by colorimetric analysis
# 4T1 [2] = assay: Antiproliferative activity against mouse 4T1 cells assessed as inhibition of cell growth incubated for 48 hrs by MTT assay; type: functional, cell-based; details: 4T1, 48 h
# MDA-MB-468 = assay: Antiproliferative activity against human MDA-MB-468 cells assessed as inhibition of cell growth incubated for 48 hrs by MTT assay; type: functional, cell-based; details: MDA-MB-468, 48 h
# 4T1 [3] = assay: Antimetastatic activity in starved mouse 4T1 cells assessed as inhibition of cell migration by measuring reduction in wound closure rate incubated for 24 hrs by scratch wound healing assay; type: functional, cell-based; details: dose 0.5-2 µM
# [4] = biological target: Protein-arginine deiminase type-4 (Mus musculus) (UniProt Q9Z183); assay: Inhibition of PAD4 in mouse 4T1 cells assessed as reduction in histone H3 citrullination measured after 48 hrs by immunoblot analysis; type: cell-based; details: dose 0.5-2 µM
# Chain of Protein-arginine deiminase type-4 (Mus musculus) (Q9Z183 whole entry): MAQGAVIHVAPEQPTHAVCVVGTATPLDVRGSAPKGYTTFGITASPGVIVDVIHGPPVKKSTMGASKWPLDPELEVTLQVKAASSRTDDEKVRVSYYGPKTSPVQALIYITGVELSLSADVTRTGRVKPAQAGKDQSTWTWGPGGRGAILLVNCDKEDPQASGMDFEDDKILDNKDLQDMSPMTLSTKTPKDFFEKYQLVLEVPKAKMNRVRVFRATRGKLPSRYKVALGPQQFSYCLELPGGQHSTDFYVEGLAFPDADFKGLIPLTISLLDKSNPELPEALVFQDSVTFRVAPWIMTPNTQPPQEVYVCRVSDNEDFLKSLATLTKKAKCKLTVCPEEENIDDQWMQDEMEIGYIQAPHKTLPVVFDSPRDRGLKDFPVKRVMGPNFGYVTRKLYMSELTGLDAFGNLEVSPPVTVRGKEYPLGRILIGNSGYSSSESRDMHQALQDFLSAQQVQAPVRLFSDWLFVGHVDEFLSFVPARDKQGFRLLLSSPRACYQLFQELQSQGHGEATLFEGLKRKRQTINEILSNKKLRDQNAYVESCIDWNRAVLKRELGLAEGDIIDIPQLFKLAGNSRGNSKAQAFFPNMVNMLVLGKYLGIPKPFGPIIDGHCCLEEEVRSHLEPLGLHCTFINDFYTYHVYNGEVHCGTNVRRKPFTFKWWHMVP
# 4T1 [5] = assay: Upregulation of feedback regulation-mediated PAD4 protein expression in mouse 4T1 cells at 0.5 to 2 uM measured after 48 hrs by immunoblot analysis; type: functional, cell-based; details: dose 0.5-2 µM
# [6] = biological target: Protein-arginine deiminase type-4 (Mus musculus) (UniProt Q9Z183); assay: Inhibition of PAD4 in BALB/c mouse bone marrow neutrophils assessed as reduction in histone H3 citrullination at 2 uM preincubated for 2 hrs followed by calcium ionophore A23187 addition and measured after 2 hrs by Hoechst 33342/Ly6G staining based laser confocal microscopic analysis; details: Neutrophil, time 4.0 hrs
# [7] = Tmax in male Sprague-Dawley rat at 3.5 mg/kg, iv by LC-MS/MS analysis; type: ADME, organism-based; details: in vivo
# [8] = Terminal half life in male Sprague-Dawley rat at 3.5 mg/kg, iv by LC-MS/MS analysis; type: ADME, organism-based; details: in vivo
# [9] = Cmax in male Sprague-Dawley rat at 3.5 mg/kg, iv by LC-MS/MS analysis; type: ADME, organism-based; details: in vivo
# [10] = Clearance in male Sprague-Dawley rat at 3.5 mg/kg, iv by LC-MS/MS analysis; type: ADME, organism-based; details: in vivo
# [11] = AUC (0 to infinity) in male Sprague-Dawley rat at 3.5 mg/kg, iv by LC-MS/MS analysis; type: ADME, organism-based; details: in vivo
# 4T1-Luc [12] = assay: Antitumor activity against mouse orthotopic 4T1-Luc cells implanted in iv dosed female BALB/c mouse assessed as inhibition of tumor growth administered via tail vein every 2 days for 9 times for 17 days and measured every 2 days by IVIS live cell imaging analysis; type: functional, organism-based; details: dose 1-10 mg/kg, time 17.0 day
# 4T1-Luc [13] = assay: Antitumor activity against mouse orthotopic 4T1-Luc cells implanted in iv dosed female BALB/c mouse assessed as reduction in tumor weight administered via tail vein every 2 days for 9 times for 17 days and measured every 2 days; type: functional, organism-based; details: dose 1-10 mg/kg, time 17.0 day
# [14] = Antitumor activity against mouse orthotopic 4T1-Luc cells implanted in female BALB/c mouse assessed as tumor growth inhibition at 10 mg/kg, iv administered via tail vein every 2 days for 9 times for 17 days and measured every 2 days relative to control; type: functional; details: 408 h, time 17 day, read-out: TGI
# 4T1-Luc [15] = assay: Antimetastatic activity against mouse orthotopic 4T1-Luc cells implanted in iv dosed female BALB/c mouse assessed as reduction in lung metastasis administered via tail vein every 2 days for 9 times for 17 days by IVIS live cell imaging analysis; type: functional, organism-based; details: dose 1-10 mg/kg, time 17.0 day
# 4T1-Luc [16] = assay: Antimetastatic activity against mouse orthotopic 4T1-Luc cells implanted in iv dosed female BALB/c mouse assessed as reduction in lung metastasis administered via tail vein every 2 days for 9 times for 17 days by H and E staining based analysis; type: functional, organism-based; details: dose 1-10 mg/kg, time 17.0 day
# [17] = Toxicity in female BALB/c mouse implanted with mouse orthotopic 4T1-Luc cells assessed as effect on viscero-somatic ratio at 1 to 10 mg/kg, iv administered via tail vein every 2 days for 9 times for 17 days; type: organism-based; details: in vivo, 408 h, dose 1-10 mg/kg, time 17 day
# [18] = Toxicity in female BALB/c mouse implanted with mouse orthotopic 4T1-Luc cells assessed as effect on serum ALT level at 1 to 10 mg/kg, iv administered via tail vein every 2 days for 9 times for 17 days; type: organism-based; details: in vivo, 408 h, dose 1-10 mg/kg, time 17 day
# [19] = Toxicity in female BALB/c mouse implanted with mouse orthotopic 4T1-Luc cells assessed as effect on serum AST level at 1 to 10 mg/kg, iv administered via tail vein every 2 days for 9 times for 17 days; type: organism-based; details: in vivo, 408 h, dose 1-10 mg/kg, time 17 day
# [20] = Toxicity in female BALB/c mouse implanted with mouse orthotopic 4T1-Luc cells assessed as effect on serum urea level at 1 to 10 mg/kg, iv administered via tail vein every 2 days for 9 times for 17 days; type: organism-based; details: in vivo, 408 h, dose 1-10 mg/kg, time 17 day
# [21] = Toxicity in female BALB/c mouse implanted with mouse orthotopic 4T1-Luc cells assessed as morphological changes in kidney at 1 to 10 mg/kg, iv administered via tail vein every 2 days for 9 times for 17 days by H and E staining based analysis; type: organism-based; details: in vivo, 408 h, dose 1-10 mg/kg, time 17 day
# Neutrophil = assay: In vivo inhibition of PAD4 in female BALB/c mouse implanted with mouse orthotopic 4T1-Luc cells assessed as inhibition of neutrophil extracellular traps formation in tumor at 10 mg/kg, iv administered via tail vein every 2 days for 9 times for 17 days by immunohistochemical staining based analysis; type: functional, organism-based; details: time 17.0 day
# 4T1-Luc [22] = assay: Antitumor activity against mouse orthotopic 4T1-Luc cells implanted in female BALB/c mouse assessed as increase in neutrophil infiltration in tumor at 10 mg/kg, iv administered via tail vein every 2 days for 9 times for 17 days by immunohistochemical staining based analysis; type: functional, organism-based; details: time 17.0 day
# Mus musculus [23] = assay: Induction of tumor microenvironment in female BALB/c mouse implanted with mouse orthotopic 4T1-Luc cells assessed as downregulation of myeloid derived suppressive M-MDSC cells at 1 to 10 mg/kg, iv administered via tail vein every 2 days for 9 times for 17 days by single-cell mass spectrometry flow cytometry analysis; type: functional, organism-based; details: dose 1-10 mg/kg, time 17.0 day
# Mus musculus [24] = assay: Induction of tumor microenvironment in female BALB/c mouse implanted with mouse orthotopic 4T1-Luc cells assessed as m1 macrophage polarization by measuring upregulation of conventional dendritic cells at 1 to 10 mg/kg, iv administered via tail vein every 2 days for 9 times for 17 days by single-cell mass spectrometry flow cytometry analysis; type: functional, organism-based; details: dose 1-10 mg/kg, time 17.0 day
# Mus musculus [25] = assay: Induction of tumor microenvironment in female BALB/c mouse implanted with mouse orthotopic 4T1-Luc cells assessed as decrease in proportion of MHC-II-negative tumor-associated neutrophils at 1 to 10 mg/kg, iv administered via tail vein every 2 days for 9 times for 17 days by single-cell mass spectrometry flow cytometry analysis; type: functional, organism-based; details: dose 1-10 mg/kg, time 17.0 day
# Mus musculus [26] = assay: Induction of tumor microenvironment in female BALB/c mouse implanted with mouse orthotopic 4T1-Luc cells assessed as decrease in PD-L1 expression for PD-L1-positive/MHC-II-positive tumor-associated neutrophils at 1 to 10 mg/kg, iv administered via tail vein every 2 days for 9 times for 17 days; type: functional, organism-based; details: dose 1-10 mg/kg, time 17.0 day
# Mus musculus [27] = assay: Induction of tumor microenvironment in female BALB/c mouse implanted with mouse orthotopic 4T1-Luc cells assessed as increase in MHC-II expression for MHC-II-positive tumor-associated neutrophils at 1 to 10 mg/kg, iv administered via tail vein every 2 days for 9 times for 17 days; type: functional, organism-based; details: dose 1-10 mg/kg, time 17.0 day
# Mus musculus [28] = assay: Induction of tumor microenvironment in female BALB/c mouse implanted with mouse orthotopic 4T1-Luc cells assessed as increase in MHC-II expression for MHC-II-negative tumor-associated neutrophils at 1 to 10 mg/kg, iv administered via tail vein every 2 days for 9 times for 17 days; type: functional, organism-based; details: dose 1-10 mg/kg, time 17.0 day
# Chain of Protein-arginine deiminase type-4 (Q9UM07 whole entry): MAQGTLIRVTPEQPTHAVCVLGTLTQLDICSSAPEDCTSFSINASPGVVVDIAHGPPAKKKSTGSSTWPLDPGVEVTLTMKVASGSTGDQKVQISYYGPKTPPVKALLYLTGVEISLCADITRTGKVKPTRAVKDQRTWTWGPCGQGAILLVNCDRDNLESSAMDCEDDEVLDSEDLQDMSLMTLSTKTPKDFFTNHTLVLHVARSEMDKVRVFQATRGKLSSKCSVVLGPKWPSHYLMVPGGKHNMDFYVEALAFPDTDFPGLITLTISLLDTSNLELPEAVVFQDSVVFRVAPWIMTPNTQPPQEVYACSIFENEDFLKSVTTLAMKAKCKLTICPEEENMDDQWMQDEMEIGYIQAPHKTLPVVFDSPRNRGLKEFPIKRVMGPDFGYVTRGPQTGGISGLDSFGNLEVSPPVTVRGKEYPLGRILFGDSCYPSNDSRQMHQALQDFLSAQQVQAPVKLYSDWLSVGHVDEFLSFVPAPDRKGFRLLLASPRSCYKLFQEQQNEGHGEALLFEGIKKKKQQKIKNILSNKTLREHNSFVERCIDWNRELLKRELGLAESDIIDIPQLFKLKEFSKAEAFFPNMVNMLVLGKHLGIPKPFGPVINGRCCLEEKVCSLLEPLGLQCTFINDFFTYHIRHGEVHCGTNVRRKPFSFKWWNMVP
smiles,measurement,setting,value
N=C(CCl)NCCC[C@H](NC(=O)c1cc2c([nH]c3ccccc32)c(-c2ccccc2)n1)C(=O)NCc1ccccc1,IC50,[1],790 nM
same,IC50,4T1 [2],2390 nM
same,IC50,MDA-MB-468,2340 nM
same,Activity,4T1 [3],Dose-Dependent Effect
same,inhibition,[4],Dose-Dependent Effect
same,Activity,4T1 [5],Active
same,inhibition,[6],Active
same,Tmax,[7],4.8 min
same,beta t1/2,[8],15 min
same,Cmax,[9],297.71 ng/mL
same,CL,[10],105.24 L/h/kg
same,AUC,[11],17346.55 ng·h/mL
same,Activity,4T1-Luc [12],Dose-Dependent Effect
same,Activity,4T1-Luc [13],Dose-Dependent Effect
same,inhibition in vivo at 10 mg/kg,[14],61.8%
same,Activity,4T1-Luc [15],Dose-Dependent Effect
same,Activity,4T1-Luc [16],Dose-Dependent Effect
same,Activity,[17],Non-Toxic
same,Activity,[18],Non-Toxic
same,Activity,[19],Non-Toxic
same,Activity,[20],Non-Toxic
same,Activity,[21],Non-Toxic
same,inhibition,Neutrophil,Active
same,Activity,4T1-Luc [22],Active
same,Activity,Mus musculus [23],Active
same,Activity,Mus musculus [24],Active
same,Activity,Mus musculus [25],Active
same,Activity,Mus musculus [26],Active
same,Activity,Mus musculus [27],Active
same,Activity,Mus musculus [28],Active

# From ChEMBL document CHEMBL5506043, “A β-Carboline Derivate PAD4 Inhibitor Reshapes Neutrophil Phenotype and Improves the Tumor Immune Microenvironment against Triple-Negative Breast Cancer” (J Med Chem, 2024)
